The values that follow come from PubChem BioAssay AID1259407 (Chemical Carcinogenesis Research Information System (CCRIS), 2018).

The subject of the data set is CCRIS mutagenicity, Ames/micronucleus/aberration tests. In words: CCRIS mutagenicity studies.
Where [1] appears, read: Test System: AMES SALMONELLA TYPHIMURIUM, Strain/Indicator: TA98, Metabolic Activation: NONE, Method: PREINCUBATION
Where [2] appears, read: Test System: AMES SALMONELLA TYPHIMURIUM, Strain/Indicator: TA100, Metabolic Activation: NONE, Method: PREINCUBATION
Setting [3] is: Test System: AMES SALMONELLA TYPHIMURIUM, Strain/Indicator: TA1535, Metabolic Activation: NONE, Method: PREINCUBATION
[4] abbreviates: Test System: AMES SALMONELLA TYPHIMURIUM, Strain/Indicator: TA1537, Metabolic Activation: NONE, Method: PREINCUBATION

Activity calls are given as the source filed them. The rule behind the calls is not given here.

On to `CCCCCCCCCCCC(=O)O`, for which the mutagenic call by setting is: (Test System: AMES SALMONELLA TYPHIMURIUM, Strain/Indicator: TA97, Metabolic Activation: HAMSTER, LIVER, S-9, AROCLOR 1254 (10%), Method: PREINCUBATION) “inactive; negative”; (Test System: AMES SALMONELLA TYPHIMURIUM, Strain/Indicator: TA97, Metabolic Activation: HAMSTER, LIVER, S-9, AROCLOR 1254 (30%), Method: PREINCUBATION) “inactive; negative”; (Test System: AMES SALMONELLA TYPHIMURIUM, Strain/Indicator: TA97, Metabolic Activation: NONE, Method: PREINCUBATION) “inactive; negative”; (Test System: AMES SALMONELLA TYPHIMURIUM, Strain/Indicator: TA97, Metabolic Activation: RAT, LIVER, S-9, AROCLOR 1254 (10%), Method: PREINCUBATION) “inactive; negative”; (Test System: AMES SALMONELLA TYPHIMURIUM, Strain/Indicator: TA97, Metabolic Activation: RAT, LIVER, S-9, AROCLOR 1254 (30%), Method: PREINCUBATION) “inactive; negative”; (Test System: AMES SALMONELLA TYPHIMURIUM, Strain/Indicator: TA98, Metabolic Activation: HAMSTER, LIVER, S-9, AROCLOR 1254 (10 OR 30%), Method: PREINCUBATION) “inactive; negative”. The mutagenic call under setting [1] is “inactive; negative”; the mutagenic call (Test System: AMES SALMONELLA TYPHIMURIUM, Strain/Indicator: TA98, Metabolic Activation: RAT, LIVER, S-9, AROCLOR 1254 (10%), Method: PREINCUBATION) is “inactive; negative”; the mutagenic call (Test System: AMES SALMONELLA TYPHIMURIUM, Strain/Indicator: TA98, Metabolic Activation: RAT, LIVER, S-9, AROCLOR 1254 (30%), Method: PREINCUBATION) was “inactive; negative”; the mutagenic call (Test System: AMES SALMONELLA TYPHIMURIUM, Strain/Indicator: TA100, Metabolic Activation: HAMSTER, LIVER, S-9, AROCLOR 1254 (10 OR 30%), Method: PREINCUBATION) is “inactive; negative”; the mutagenic call under setting [2] was “inactive; negative”; the mutagenic call (Test System: AMES SALMONELLA TYPHIMURIUM, Strain/Indicator: TA100, Metabolic Activation: RAT, LIVER, S-9, AROCLOR 1254 (10%), Method: PREINCUBATION) is “inactive; negative”. Further, the mutagenic call was “inactive; negative” (Test System: AMES SALMONELLA TYPHIMURIUM, Strain/Indicator: TA100, Metabolic Activation: RAT, LIVER, S-9, AROCLOR 1254 (30%), Method: PREINCUBATION); “inactive; negative” (Test System: AMES SALMONELLA TYPHIMURIUM, Strain/Indicator: TA1535, Metabolic Activation: HAMSTER, LIVER, S-9, AROCLOR 1254 (10%), Method: PREINCUBATION); “inactive; negative” (Test System: AMES SALMONELLA TYPHIMURIUM, Strain/Indicator: TA1535, Metabolic Activation: HAMSTER, LIVER, S-9, AROCLOR 1254 (30%), Method: PREINCUBATION); “inactive; negative” under setting [3]; “inactive; negative” (Test System: AMES SALMONELLA TYPHIMURIUM, Strain/Indicator: TA1535, Metabolic Activation: RAT, LIVER, S-9, AROCLOR 1254 (10%), Method: PREINCUBATION); “inactive; negative” (Test System: AMES SALMONELLA TYPHIMURIUM, Strain/Indicator: TA1535, Metabolic Activation: RAT, LIVER, S-9, AROCLOR 1254 (30%), Method: PREINCUBATION). Further, the mutagenic call was “inactive; negative” (Test System: AMES SALMONELLA TYPHIMURIUM, Strain/Indicator: TA1537, Metabolic Activation: HAMSTER, LIVER, S-9, AROCLOR 1254 (10%), Method: PREINCUBATION); “inactive; negative” (Test System: AMES SALMONELLA TYPHIMURIUM, Strain/Indicator: TA1537, Metabolic Activation: HAMSTER, LIVER, S-9, AROCLOR 1254 (30%), Method: PREINCUBATION); “inactive; negative” under setting [4]; “inactive; negative” (Test System: AMES SALMONELLA TYPHIMURIUM, Strain/Indicator: TA1537, Metabolic Activation: RAT, LIVER, S-9, AROCLOR 1254 (30%), Method: PREINCUBATION).

As for `Nn1c2ccccc2c2cnccc21`, the mutagenic call was “active; positive” under setting [4] and “inactive; negative” (Test System: AMES SALMONELLA TYPHIMURIUM, Strain/Indicator: TA1537, Metabolic Activation: RAT, LIVER, S-9, PHENOBARBITAL, Method: PREINCUBATION).

In the case of `C=CC(O)c1ccc2c(c1)OCO2` (centres undefined), the mutagenic call (Test System: UDS HUMAN FIBROBLASTS, Strain/Indicator: THY INCORP (NON-S-PHASE), Metabolic Activation: NONE, Method: AUTORADIOGRAPHY) was “active; positive”.

Turning to `C1CNCCN1`, the mutagenic call was “inactive; negative” (Test System: AMES SALMONELLA TYPHIMURIUM, Strain/Indicator: TA98, Metabolic Activation: HAMSTER, LIVER, S-9, AROCLOR 1254, Method: PREINCUBATION); “inactive; negative” under setting [1]; “inactive; negative” (Test System: AMES SALMONELLA TYPHIMURIUM, Strain/Indicator: TA98, Metabolic Activation: RAT, LIVER, S-9, AROCLOR 1254, Method: PREINCUBATION); “inactive; negative” (Test System: AMES SALMONELLA TYPHIMURIUM, Strain/Indicator: TA98, Metabolic Activation: RAT, LIVER, S-9, PCB, Method: PREINCUBATION); “inactive; negative” (Test System: AMES SALMONELLA TYPHIMURIUM, Strain/Indicator: TA100, Metabolic Activation: HAMSTER, LIVER, S-9, AROCLOR 1254, Method: PREINCUBATION); “inactive; negative” under setting [2]. In addition, the mutagenic call (Test System: AMES SALMONELLA TYPHIMURIUM, Strain/Indicator: TA100, Metabolic Activation: RAT, LIVER, S-9, AROCLOR 1254, Method: PREINCUBATION) is “inactive; negative”; the mutagenic call (Test System: AMES SALMONELLA TYPHIMURIUM, Strain/Indicator: TA100, Metabolic Activation: RAT, LIVER, S-9, PCB, Method: PREINCUBATION) is “inactive; negative”; the mutagenic call (Test System: AMES SALMONELLA TYPHIMURIUM, Strain/Indicator: TA1535, Metabolic Activation: HAMSTER, LIVER, S-9, AROCLOR 1254, Method: PREINCUBATION) is “inactive; negative”; the mutagenic call under setting [3] was “inactive; negative”; the mutagenic call (Test System: AMES SALMONELLA TYPHIMURIUM, Strain/Indicator: TA1535, Metabolic Activation: RAT, LIVER, S-9, AROCLOR 1254, Method: PREINCUBATION) was “inactive; negative”; the mutagenic call (Test System: AMES SALMONELLA TYPHIMURIUM, Strain/Indicator: TA1537, Metabolic Activation: HAMSTER, LIVER, S-9, AROCLOR 1254, Method: PREINCUBATION) is “inactive; negative”. Moreover, the mutagenic call was “inactive; negative” under setting [4] and “inactive; negative” (Test System: AMES SALMONELLA TYPHIMURIUM, Strain/Indicator: TA1537, Metabolic Activation: RAT, LIVER, S-9, AROCLOR 1254, Method: PREINCUBATION).
